The source of these data is article PMC11500415, “Chemical inhibition of stomatal differentiation by perturbation of the master-regulatory bHLH heterodimer via an ACT-Like domain” (Nature Communications, 2024).

One experiment has as its target T1, empty+SCRM (control) (Arabidopsis thaliana, UniProt Q9LSE2).
T1 construct: split YFP constructs fused to the full-length stomatal bHLH proteins; expressed in transfected cells; host or cells: Nicotiana benthamiana leaves (Agrobacterium infiltration)
T1 sequence (Q9LSE2 1-494): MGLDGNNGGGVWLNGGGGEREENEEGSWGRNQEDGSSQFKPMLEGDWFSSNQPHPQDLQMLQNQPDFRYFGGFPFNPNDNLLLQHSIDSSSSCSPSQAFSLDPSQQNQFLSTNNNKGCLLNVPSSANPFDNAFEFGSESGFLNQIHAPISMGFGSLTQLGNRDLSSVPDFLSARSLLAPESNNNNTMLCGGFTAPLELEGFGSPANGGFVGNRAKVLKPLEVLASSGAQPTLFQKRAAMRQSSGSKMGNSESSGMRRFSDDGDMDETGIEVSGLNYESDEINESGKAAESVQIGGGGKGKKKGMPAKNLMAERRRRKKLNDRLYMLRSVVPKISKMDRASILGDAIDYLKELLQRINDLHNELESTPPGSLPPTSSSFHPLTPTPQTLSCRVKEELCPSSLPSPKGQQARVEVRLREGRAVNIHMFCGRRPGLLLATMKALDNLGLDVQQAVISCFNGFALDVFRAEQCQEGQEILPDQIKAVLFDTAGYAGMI
Description: Ratiometric BiFC, control empty+SCRM. Particulars: STOMI-treated, individual measurements. It counts as cell-based.

The next experiment has as its target T2, SCRM-SPCH heterodimer (Arabidopsis thaliana, UniProt Q700C7).
T2 construct: heterodimerization of SCRM with full-length SPCH, MUTE, or FAMA in the context of the plant cells; combinations of split YFP constructs fused to the full-length stomatal bHLH proteins; nYFP (N terminus of EYFP, 174 amino acids); cYFP (C terminus of EYFP, 64 amino acids); expressed in transfected cells; host or cells: Nicotiana benthamiana leaves (Agrobacterium infiltration)
T2 sequence (Q700C7 1-364): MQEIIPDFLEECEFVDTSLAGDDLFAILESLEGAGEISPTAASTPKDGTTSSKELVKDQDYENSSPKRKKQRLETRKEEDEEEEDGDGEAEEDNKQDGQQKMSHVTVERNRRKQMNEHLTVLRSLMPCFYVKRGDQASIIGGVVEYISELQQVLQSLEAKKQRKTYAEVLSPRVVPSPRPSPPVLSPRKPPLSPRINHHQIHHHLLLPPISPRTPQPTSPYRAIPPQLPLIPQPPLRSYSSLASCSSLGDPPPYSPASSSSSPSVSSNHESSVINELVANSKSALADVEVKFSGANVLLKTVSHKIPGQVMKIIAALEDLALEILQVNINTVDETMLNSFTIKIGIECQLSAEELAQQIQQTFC
It counts as cell-based. The note with it: STOMI-treated. An excerpt:
(§1) For ratiometric BiFC assays, the cDNAs of SPCH, MUTE, and FAMA were cloned into the 35S CaMV promoter-driven destination vector pSPYNE, which contains the N terminus of the EYFP protein (nYFP-174 amino acids), while the cDNA of SCRM and SCRM2 was inserted into pSPYCE, which contains the C terminus of the EYFP protein (cYFP-64 amino acids) (see Supplementary Table 5 for detailed information of the constructs). The constructs were then transformed into Agrobacterium tumefaciens strain GV3101. The Agrobacterium was resuspended in infiltration buffer (10 mM MgCl2, 10 mM 2-(N-morpholino)ethanesulfonic acid [pH 5.6], and 150 µM acetosyringone). Bacterial culture densities were adjusted to a final optical density (OD600) of 1.0, and the cell suspensions were incubated at room temperature for 4 hours prior to infiltration. Equal volumes of cultures carrying the corresponding complementary pair of BiFC constructs (YFPn and YFPc), along with CaMV35S::Histone H2B-mScarlet-I3 and the silencing suppressor plasmid p19 (a gift from Dr. Sir David Baulcombe) were mixed and then co-infiltrated into 4-week-old N. benthamiana leaves. The infiltrated N. benthamiana leaves were incubated at 25 °C for 2 days. Subsequently, leaf discs were cut out and cultured in mock or in liquid 1/2 MS media in mock (DMSO) or 100 µM Stomidazolone for 1 day. Confocal imaging of N. benthamiana leaves was performed using a Leica SP8 confocal microscope using a 20X objective lens (Leica Microsystems), simultaneously capturing YFP (excitation at 518 nm and emission at 530 nm) and mScarlet-I3 (excitation at 569 nm and emission at 600 nm) differential interference contrast channels.

A further experiment has as its target T3, SCRM2-SPCH heterodimer (Arabidopsis thaliana, UniProt Q700C7).
T3 construct: heterodimerization of SCRM with full-length SPCH, MUTE, or FAMA in the context of the plant cells; we performed rBiFC assays using full-length SCRM2; nYFP (N terminus of EYFP, 174 amino acids); cYFP (C terminus of EYFP, 64 amino acids); expressed in transfected cells; host or cells: Nicotiana benthamiana leaves (Agrobacterium infiltration)
Nature of the experiment: Ratiometric BiFC in N. benthamiana leaves. It counts as cell-based. The note with it: SPCH-SCRM2 pair, STOMI-treated, rescaled, average of 20; DMSO 0.870846.
Description: as §1

In a further experiment the target is T4, SCRM-FAMA heterodimer (Arabidopsis thaliana, UniProt Q56YJ8).
T4 construct: heterodimerization of SCRM with full-length SPCH, MUTE, or FAMA in the context of the plant cells; combinations of split YFP constructs fused to the full-length stomatal bHLH proteins; nYFP (N terminus of EYFP, 174 amino acids); cYFP (C terminus of EYFP, 64 amino acids); expressed in transfected cells; host or cells: Nicotiana benthamiana leaves (Agrobacterium infiltration)
T4 sequence (Q56YJ8 1-414): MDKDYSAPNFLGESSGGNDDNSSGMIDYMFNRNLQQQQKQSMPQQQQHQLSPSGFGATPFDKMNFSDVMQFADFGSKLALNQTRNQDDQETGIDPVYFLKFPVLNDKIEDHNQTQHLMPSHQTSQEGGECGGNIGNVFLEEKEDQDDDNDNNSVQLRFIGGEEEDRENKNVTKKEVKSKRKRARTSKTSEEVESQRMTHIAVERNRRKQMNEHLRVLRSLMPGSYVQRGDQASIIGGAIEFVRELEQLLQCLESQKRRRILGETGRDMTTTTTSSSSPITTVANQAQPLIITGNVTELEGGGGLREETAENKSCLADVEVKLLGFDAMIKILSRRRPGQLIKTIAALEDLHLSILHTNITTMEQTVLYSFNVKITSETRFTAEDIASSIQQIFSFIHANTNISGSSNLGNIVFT
Description: Ratiometric BiFC in N. benthamiana leaves. It counts as cell-based. The note with it: BiFC FAMA+SCRM, STOMI-treated, individual measurements.
Description: as §1

For a further experiment, the target named is T5, SCRM2-MUTE heterodimer (Arabidopsis thaliana, UniProt Q9M8K6).
T5 construct: heterodimerization of SCRM with full-length SPCH, MUTE, or FAMA in the context of the plant cells; nYFP (N terminus of EYFP, 174 amino acids); expressed in transfected cells; host or cells: Nicotiana benthamiana leaves (Agrobacterium infiltration)
Description: Ratiometric BiFC in N. benthamiana leaves. The note with it: MUTE-SCRM2 pair, STOMI-treated, rescaled, average of 20; DMSO 0.692877. The experiment is classed as cell-based.
Description: as §1

The next experiment addresses T6, SCRM-MUTE heterodimer (Arabidopsis thaliana, UniProt Q9M8K6).
T6 construct: expressed in transfected cells; host or cells: yeast strain AH109
T6 sequence (Q9M8K6 1-202): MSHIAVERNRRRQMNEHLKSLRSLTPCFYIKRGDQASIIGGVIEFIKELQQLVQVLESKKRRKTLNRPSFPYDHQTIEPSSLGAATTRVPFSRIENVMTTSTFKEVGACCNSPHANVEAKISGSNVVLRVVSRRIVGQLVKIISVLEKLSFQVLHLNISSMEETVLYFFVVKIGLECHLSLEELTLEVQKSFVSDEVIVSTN
Description: Ratiometric BiFC in N. benthamiana leaves. The experiment is classed as cell-based. The note with it: BiFC MUTE+SCRM, STOMI-treated, individual measurements.
Description: as §1

Another experiment deals with T7, SCRM2-FAMA heterodimer (Arabidopsis thaliana, UniProt Q56YJ8).
T7 construct: heterodimerization of SCRM with full-length SPCH, MUTE, or FAMA in the context of the plant cells; we performed rBiFC assays using full-length SCRM2; nYFP (N terminus of EYFP, 174 amino acids); cYFP (C terminus of EYFP, 64 amino acids); expressed in transfected cells; host or cells: Nicotiana benthamiana leaves (Agrobacterium infiltration)
Nature of the experiment: Ratiometric BiFC in N. benthamiana leaves. Particulars: FAMA-SCRM2 pair, STOMI-treated, rescaled, average of 20; DMSO 0.813227. It counts as cell-based.
Description: as §1

A further experiment concerns stomatal movement. Set-up: method as in PMID 35042960. Particulars: previous chemical screens and SAR studies; cited from earlier work.
Where [1] appears, read: BiFC SPCH+SCRM, individual measurements.

Where “and” joins values, the source holds several entries; their conditions need not be identical. Identical values can stand only once.

On to `O=C1C(c2ccccc2)=NC(NS(=O)(=O)c2ccccc2)(c2ccccc2)N1S(=O)(=O)c1ccccc1` (racemic) [STOMI], for which the YFP on empty+SCRM (control) is 0.095 and 0.409 and 0 and 0.026 and 5.60E-04 and 0.042; on SCRM-SPCH heterodimer (setting [1]), 42.813 and 234.339 and 61.532 and 61.417 and 224.742 and 142.963; on SCRM-FAMA heterodimer, 186.917 and 54.749 and 197.322 and 78.346 and 117.223 and 50.688; on SCRM-MUTE heterodimer, 1.16E+01 and 3.104 and 3.249 and 11.738 and 9.681 and 6.858. Moreover, the YFP/mScarlet on empty+SCRM (control) is 0.0009064 and 0.01087 and 0 and 0.0008066 and 3.5039e-6 and 0.000976; at SCRM-FAMA heterodimer, 0.9773 and 1.064 and 0.9455 and 1.191 and 0.9038 and 0.8169; at SCRM-MUTE heterodimer, 0.2554 and 0.01703 and 0.0181 and 0.2123 and 0.2385 and 0.1574. For the same compound, the mScarlet on empty+SCRM (control) was 104.805 and 37.637 and 55.755 and 32.234 and 159.765 and 43.034; on SCRM-SPCH heterodimer (setting [1]) it was 36.031 and 235.498 and 75.919 and 70.723 and 231.024 and 153.918; on SCRM-FAMA heterodimer it was 191.252 and 51.452 and 208.697 and 65.781 and 129.694 and 62.052; on SCRM-MUTE heterodimer, 45.576 and 182.295 and 179.515 and 55.282 and 40.598 and 43.561. Besides, the “BiFC YFP/mScarlet signal intensity ratio, average” value on SCRM-SPCH heterodimer (SPCH-SCRM pair, rescaled, average of 20, DMSO 0.999748) is on record as 0.9445; on SCRM2-SPCH heterodimer it was 0.1468; on SCRM2-MUTE heterodimer it was 0.1063; at SCRM2-FAMA heterodimer it was 0.1443.

With `O=S(=O)(c1ccccc1)N(c1oc(-c2ccccc2)nc1-c1ccccc1)S(=O)(=O)c1ccccc1` [SIM1], the “effect on stomatal movement (in words)” value in the experiment on stomatal movement is “inhibit stomatal movement”.
